{"source": "patent US20120009280A1", "about": "“METHOD OF REDUCING THE RATE OF DEGRADATION OF A BIOLOGICAL MATERIAL” (Bio-Energy Ingredients Limited, priority 2009, published 2012)", "format_in_all_cases": "cell-based", "key": {"[1]": {"system": "Clostridium difficile ATCC 43255", "test": "Antimicrobial efficacy test of saturated aqueous solutions", "details": "for Corrected count cfu/mL: saturated aqueous solution, inoculum (t = 0) 8.20 × 10^7, replicates A, B; for reduction: saturated solution 8.35 g/L (0.037 M)", "experimental": "(§1) Escherichia coli NCIMB 8545 and Salmonella abony NCTC 6017 were subcultured onto Tryptone Soya Agar (TSA) and the plates incubated at 30-35° C. for approximately 24 hours. Clostridium difficile ATCC 43255 was subcultured onto Fastidious Anaerobe Agar (FAA)+5% defibrinated horse blood and the plates incubated at 30-35° C. for approximately 48 hours. After this time, surface growth was harvested and directly suspended into sterile distilled water and standardised to give 30-45% light transmission at 520 nm on a Jenway 6105 Spectrophotometer—an approximate yield of 2×10^8 cfu/ml. […] […]. At the same time, 1 ml of bacterial suspension was removed from the original stock suspensions and placed into 9 ml PBS to perform the initial (Time 0) count. The inoculated suspensions were then shaken for ten minutes at room temperature. After 1 and 10 minutes, 1 ml samples of the bacterial suspensions were removed from the test containers and placed into 9 ml PBS. For each diluted sample, further serial ten-fold dilutions in PBS down to 10^−5 were made and then used to prepare duplicate 1 ml pour plate counts in TSA. Pour plates were also prepared from the neat (undiluted) sample. For Clostridium difficile, 0.1 ml spread plates were prepared on FAA instead of 1 ml pour plates due to the presence of blood in the agar. The plates were incubated at 30-35° C. for approximately 24 hours (48 hours for Clostridium difficile).\n(§2) Following incubation, the plates were counted. Optimally, plates with counts of 30-300 colonies were used to calculate the counts at each sampling time."}, "[2]": {"system": "Escherichia coli NCIMB 8545", "test": "Antimicrobial efficacy test of saturated aqueous solutions", "details": "for Corrected count cfu/mL: saturated aqueous solution, inoculum (t = 0) 6.95 × 10^8, replicates A, B; for colonies on plates: saturated solution", "experimental": "Escherichia coli NCIMB 8545 was subcultured onto TSA and the plates incubated at 30-35° C. for approximately 24 hours. After this time, surface growth was harvested and directly suspended into sterile distilled water and standardised to give 30-45% light transmission at 520 nm on a Jenway 6105 Spectrophotometer—an approximate yield of 2 (10^8) cfu/ml. A 0.1 ml aliquot of this suspension was inoculated into 9.9 ml of CaOH solution. This was performed in duplicate. At the same time, 1 ml of bacterial suspension was removed from the original stock suspension and placed into 9 ml PBS to perform the initial (Time 0) count. The inoculated calcium hydroxide suspensions were then shaken for one hour at room temperature. After this time 1 ml samples of the bacterial suspension were removed from the test containers and placed into 9 ml PBS. For each diluted sample, further serial ten-fold dilutions in PBS down to 10^−5 were made and then used to prepare duplicate 1 ml pour plate counts in TSA. Pour plates were also prepared from the neat (undiluted) sample. The plates were incubated at 30-35° C. for approximately 24 hours. Following incubation, the plates were counted. Optimally, plates with counts of 30-300 colonies were used to calculate the counts at each sampling time.\nEscherichia coli NCIMB 8545 was subcultured onto TSA and the plates incubated at 30-35° C. for approximately 24 hours. After this time, surface growth was harvested and directly suspended into sterile distilled water and standardised to give 30-45% light transmission at 520 nm on a Jenway 6105 Spectrophotometer—an approximate yield of 2×10^8 cfu/ml. […] […]. At the same time, 1 ml of bacterial suspension was removed from the original stock suspension and placed into 9 ml PBS to perform the initial (Time 0) count. The inoculated suspensions were then shaken for one hour at room temperature. After both 10 minutes and one hour, 1 ml samples of the bacterial suspension were removed from the test containers and placed into 9 ml PBS. For each diluted sample, further serial ten-fold dilutions in PBS down to 10^−6 were made and then used to prepare duplicate 1 ml pour plate counts in TSA. Pour plates were also prepared from the neat (undiluted) sample. The plates were incubated at 30-35° C. for approximately 24 hours.\nas §2, §1"}, "[3]": {"system": "Escherichia coli", "test": "Spiking test of agar plates with Escherichia coli (kill versus inhibition)", "details": "for Individual count / Mean count: spiking test", "experimental": "(§3) When performing total viable counts (TVCs), the agar plates (when they were molten and containing 1 ml of the test sample dilution) were spiked with bacterial organisms (E. Coli and P. aeruginosa) of a known concentration. If the organisms grew, this would indicate that the conditions in the agar plate had not inhibited them. A control with no sample was run at the same time. […]\n(§4) The plates were incubated at 30-35° C. for approximately 24 hours after which time the bacterial colonies were counted.\n. […] This was performed in duplicate."}, "[4]": {"system": "Salmonella abony NCTC 6017", "test": "Antimicrobial efficacy test of saturated aqueous solutions", "experimental": "At the same time, 1 ml of bacterial suspension was removed from the original stock suspensions and placed into 9 ml PBS to perform the initial (Time 0) count. The inoculated suspensions were then shaken for ten minutes at room temperature. After 1 and 10 minutes, 1 ml samples of the bacterial suspensions were removed from the test containers and placed into 9 ml PBS. For each diluted sample, further serial ten-fold dilutions in PBS down to 10^−5 were made and then used to prepare duplicate 1 ml pour plate counts in TSA. Pour plates were also prepared from the neat (undiluted) sample. For Clostridium difficile, 0.1 ml spread plates were prepared on FAA instead of 1 ml pour plates due to the presence of blood in the agar. The plates were incubated at 30-35° C. for approximately 24 hours (48 hours for Clostridium difficile).\nas §2"}, "[5]": {"system": "Pseudomonas aeruginosa", "test": "Spiking test of agar plates with Pseudomonas aeruginosa (kill versus inhibition)", "details": "treated sample with 5% (w/w) calcium oxide, Day 9, all sample dilutions", "experimental": "as §3, §4"}, "[6]": {"system": "total micro-organism", "test": "Total microbial (plate) count of spent brewer's / wet distiller's grains stored at ambient temperature", "details": "dose 10% w/w; distiller's grains not de-watered, Examples 16-18"}, "[7]": {"details": "10 minutes incubation, Example 13"}, "[8]": {"details": "10 minutes incubation, time 0 count 4.00×10^6 cfu/ml, Example 12"}, "[9]": {"details": "one hour incubation, time 0 count 4.00×10^6 cfu/ml, Example 12"}, "[10]": {"details": "E. coli NCIMB 8545, dilution −1 in PBS"}, "[11]": {"details": "E. coli NCIMB 8545, dilution −2 in PBS"}, "[12]": {"details": "E. coli NCIMB 8545, dilution −3 in PBS"}, "[13]": {"details": "E. coli NCIMB 8545, dilution −4 in PBS"}, "[14]": {"details": "E. coli NCIMB 8545, dilution −5 in PBS"}, "[15]": {"details": "E. coli NCIMB 8545, saturated solution Neat (control mean 215)"}}, "note": "Values joined by “and” are separate entries in the source; they are usually repeats but may differ in a detail not shown here. Equal entries are not always repeated."}
{"smiles": "[Ca+2].[O-]CC(O)CO.[O-]CC(O)CO", "note": "[calcium diglyceroxide]", "values": [{"measurement": "Corrected count cfu/mL", "setting": "[1]; one minute treatment", "result": "1.30 × 10^3 cfu/mL and 7.00 × 10^2 cfu/mL"}, {"measurement": "Corrected count cfu/mL", "setting": "[1]; ten minute treatment", "result": "85 cfu/mL and 50 cfu/mL"}, {"measurement": "reduction", "setting": "[1]; one minute treatment", "result": "≥ 4", "unit": "log10"}, {"measurement": "reduction", "setting": "[1]; ten minute treatment", "result": 6, "unit": "log10"}, {"measurement": "Corrected count cfu/mL", "setting": "[2]; one minute treatment", "result": "0 cfu/mL and 1 cfu/mL"}, {"measurement": "reduction", "setting": "[2]; saturated solution 8.35 g/L (0.037 M), one minute treatment", "result": "≥ 4", "unit": "log10"}, {"measurement": "colonies on plates", "setting": "[2]; [7]", "result": "No colonies"}, {"measurement": "colonies on plates", "setting": "[2]; [8]", "result": "No colonies"}, {"measurement": "colonies on plates", "setting": "[2]; [9]", "result": "No colonies"}]}
{"smiles": "[Ca+2].[OH-].[OH-]", "note": "[calcium hydroxide]", "values": [{"measurement": "Individual count", "setting": "[3]; [10]", "result": "197 and 209"}, {"measurement": "Mean count", "setting": "[3]; [10]", "result": 203}, {"measurement": "Individual count", "setting": "[3]; [11]", "result": "194 and 203"}, {"measurement": "Mean count", "setting": "[3]; [11]", "result": 199}, {"measurement": "Individual count", "setting": "[3]; [12]", "result": "192 and 240"}, {"measurement": "Mean count", "setting": "[3]; [12]", "result": 216}, {"measurement": "Individual count", "setting": "[3]; [13]", "result": "194 and 196"}, {"measurement": "Mean count", "setting": "[3]; [13]", "result": 195}, {"measurement": "Individual count", "setting": "[3]; [14]", "result": "235 and 194"}, {"measurement": "Mean count", "setting": "[3]; [14]", "result": 215}, {"measurement": "Individual count", "setting": "[3]; [15]", "result": "216 and 191"}, {"measurement": "Mean count", "setting": "[3]; [15]", "result": 205}, {"measurement": "Corrected count cfu/mL", "setting": "[4]; saturated aqueous solution, one minute treatment, inoculum (t = 0) 7.00 × 10^8, replicates A, B", "result": "59 cfu/mL and 11 cfu/mL"}, {"measurement": "colonies on plates", "setting": "[4]; saturated solution, 10 minutes incubation", "result": "No colonies"}, {"measurement": "Corrected count cfu/mL", "setting": "[1]; one minute treatment", "result": "8.50 × 10^2 cfu/mL and 9.50 × 10^2 cfu/mL"}, {"measurement": "Corrected count cfu/mL", "setting": "[1]; ten minute treatment", "result": "1.10 × 10^2 cfu/mL and 1.20 × 10^2 cfu/mL"}, {"measurement": "Corrected count cfu/mL", "setting": "[2]; one minute treatment", "result": "1.35 × 10^6 cfu/mL and 1.23 × 10^5 cfu/mL"}, {"measurement": "colonies on plates", "setting": "[2]; [7]", "result": "No colonies"}, {"measurement": "colonies on plates", "setting": "[2]; [8]", "result": "No colonies"}, {"measurement": "colonies on plates", "setting": "[2]; [9]", "result": "No colonies"}]}
{"smiles": "[O]=[Ca]", "note": "[calcium oxide]", "values": [{"measurement": "inhibitory effect on test organism in spiking test", "setting": "[3]; treated sample with 5% (w/w) calcium oxide, Day 9, all sample dilutions", "result": "did not demonstrate an inhibitory effect"}, {"measurement": "inhibitory effect on test organism in spiking test", "setting": "[5]", "result": "did not demonstrate an inhibitory effect"}, {"measurement": "preservation time with total microbial counts <100 cfu/g", "setting": "[6]", "result": "≧9 weeks"}, {"measurement": "preservation time with total microbial counts <1000 cfu/g", "setting": "[6]", "result": "≧9 weeks"}]}
